Assay results: ChEMBL document CHEMBL5380795, “Design, Synthesis, and Bioactivity Investigation of Cyclic Lipopeptide Antibiotics Containing Eight to Nine Amino Acids” (J Med Chem, 2023)
Converted amounts (≈) assume the structure as drawn. The source made the active and inactive calls. The calls are words filed in the database; no cut-off is given here. Bridge positions count the residues as written; N and C are the ends. Square brackets hold non-standard residues; d marks the D form. Peptide text beside a SMILES is read from it. * marks the point of attachment. Decanoyl(3R-OH) = CCCCCCC[C@@H](O)CC(=O)*; dDab = NCC[C@@H](N)C(=O)O; Dab = NCC[C@H](N)C(=O)O

Tests used:
[1] = tested on: Staphylococcus aureus; experiment: Antibacterial activity against methicillin resistant Staphylococcus aureus ATCC 33591 assessed as inhibition of bacterial growth incubated for 18 to 24 hrs by broth microdilution method; format: functional; settings: time 18-24 hrs
[2] = tested on: Staphylococcus aureus; experiment: Antibacterial activity against Staphylococcus aureus ATCC 29213 assessed as inhibition of bacterial growth incubated for 18 to 24 hrs by broth microdilution method; format: functional; settings: time 18-24 hrs
[3] = tested on: Staphylococcus epidermidis; experiment: Antibacterial activity against methicillin resistant Staphylococcus epidermidis clinical isolate 19-5 assessed as inhibition of bacterial growth incubated for 18 to 24 hrs by broth microdilution method; format: functional; settings: time 18-24 hrs
[4] = tested on: Staphylococcus epidermidis; experiment: Antibacterial activity against methicillin resistant Staphylococcus epidermidis clinical isolate 19-6 assessed as inhibition of bacterial growth incubated for 18 to 24 hrs by broth microdilution method; format: functional; settings: time 18-24 hrs
[5] = tested on: Escherichia coli; experiment: Antibacterial activity against Escherichia coli ATCC BAA-2523 assessed as inhibition of bacterial growth incubated for 18 to 24 hrs by broth microdilution method; format: functional; settings: time 18-24 hrs
[6] = tested on: Escherichia coli; experiment: Antibacterial activity against Escherichia coli NCTC 13353 assessed as inhibition of bacterial growth incubated for 18 to 24 hrs by broth microdilution method; format: functional; settings: time 18-24 hrs
[7] = tested on: Escherichia coli; experiment: Antibacterial activity against Escherichia coli clinical isolate 19-2 assessed as inhibition of bacterial growth incubated for 18 to 24 hrs by broth microdilution method; format: functional; settings: time 18-24 hrs
[8] = tested on: Escherichia coli; experiment: Antibacterial activity against KPC producing Escherichia coli ATCC BAA-2340 assessed as inhibition of bacterial growth incubated for 18 to 24 hrs by broth microdilution method; format: functional; settings: time 18-24 hrs
[9] = tested on: Klebsiella pneumoniae; experiment: Antibacterial activity against carbapenem resistant Klebsiella pneumoniae clinical isolate 19-15 assessed as inhibition of bacterial growth incubated for 18 to 24 hrs by broth microdilution method; format: functional; settings: time 18-24 hrs
[10] = tested on: Klebsiella pneumoniae; experiment: Antibacterial activity against carbapenem resistant Klebsiella pneumoniae clinical isolate 19-17 assessed as inhibition of bacterial growth incubated for 18 to 24 hrs by broth microdilution method; format: functional; settings: time 18-24 hrs
[11] = tested on: Klebsiella pneumoniae; experiment: Antibacterial activity against KPC producing Klebsiella pneumoniae ATCC BAA-1705 assessed as inhibition of bacterial growth incubated for 18 to 24 hrs by broth microdilution method; format: functional; settings: time 18-24 hrs
[12] = tested on: Pseudomonas aeruginosa; experiment: Antibacterial activity against Pseudomonas aeruginosa clinical isolate 19-1 assessed as inhibition of bacterial growth incubated for 18 to 24 hrs by broth microdilution method; format: functional; settings: time 18-24 hrs
[13] = tested on: Pseudomonas aeruginosa; experiment: Antibacterial activity against carbapenem resistant Pseudomonas aeruginosa clinical isolate 19-3 assessed as inhibition of bacterial growth incubated for 18 to 24 hrs by broth microdilution method; format: functional; settings: time 18-24 hrs
[14] = tested on: Pseudomonas aeruginosa; experiment: Antibacterial activity against carbapenem resistant Pseudomonas aeruginosa clinical isolate 17-1 assessed as inhibition of bacterial growth incubated for 18 to 24 hrs by broth microdilution method; format: functional; settings: time 18-24 hrs
[15] = tested on: Pseudomonas aeruginosa; experiment: Antibacterial activity against Pseudomonas aeruginosa ATCC 27853 assessed as inhibition of bacterial growth incubated for 18 to 24 hrs by broth microdilution method; format: functional; settings: time 18-24 hrs
[16] = tested on: Acinetobacter baumannii; experiment: Antibacterial activity against carbapenem resistant Acinetobacter baumannii clinical isolate 19-8 assessed as inhibition of bacterial growth incubated for 18 to 24 hrs by broth microdilution method; format: functional; settings: time 18-24 hrs
[17] = tested on: Acinetobacter baumannii; experiment: Antibacterial activity against oxacillinase-27 producing Acinetobacter baumannii NCTC 13304 assessed as inhibition of bacterial growth incubated for 18 to 24 hrs by broth microdilution method; format: functional; settings: time 18-24 hrs
[18] = Cytotoxicity against human HK-2 cells assessed as inhibition of cell growth incubated for 72 hrs by CCK-8 assay; format: toxicity, cell-based
[19] = Selectivity index, ratio of IC50 for cytotoxicity against human HK-2 cells to MIC for antibacterial activity against Escherichia coli ATCC BAA-2523; format: toxicity, cell-based
[20] = tested on: Escherichia coli; experiment: Antibacterial activity against Escherichia coli; format: functional
[21] = tested on: Pseudomonas aeruginosa; experiment: Antibacterial activity against Pseudomonas aeruginosa; format: functional
[22] = tested on: Klebsiella pneumoniae; experiment: Antibacterial activity against Klebsiella pneumoniae; format: functional
[23] = tested on: Acinetobacter baumannii; experiment: Antibacterial activity against Acinetobacter baumannii; format: functional
[24] = tested on: Staphylococcus aureus; experiment: Antibacterial activity against Staphylococcus aureus; format: functional
[25] = tested on: Staphylococcus epidermidis; experiment: Antibacterial activity against Staphylococcus epidermidis; format: functional
[26] = tested on: Candida albicans; experiment: Antifungal activity against Candida albicans; format: functional
[27] = tested on: Cell membrane; experiment: Induction of outer membrane permeabilization in Escherichia coli ATCC 25922 assessed as increase in fluorescence at 1 to 16 ug/ml measured after 3 mins by NPN-dye based assay; format: subcellular; settings: dose 1-16 µg/ml
[28] = tested on: Escherichia coli; experiment: Antibacterial activity against Escherichia coli ATCC 25922 assessed as inhibition of bacterial growth incubated for 18 to 24 hrs by broth microdilution method; format: functional; settings: time 18-24 hrs
[29] = Plasma protein binding in human at 2 uM incubated for 6 hrs by equilibrium dialysis based LC-MS/MS analysis; format: ADME, cell-free; settings: read-out: PPB (converted)

Row | SMILES | MIC [1] | MIC [2] | MIC [3] | MIC [4] | MIC [5] | MIC [6] | MIC [7] | MIC [8] | MIC [9] | MIC [10] | MIC [11] | MIC [12] | MIC [13] | MIC [14] | MIC [15] | MIC [16] | MIC [17] | IC50 at 72 h [18] | selectivity ratio [19] | MIC [20] | further results
1 | CCCCCCC[C@@H](O)CC(=O)N[C@H](CCN)C(=O)N[C@H]1CCNC(=O)[C@H](CC(C)C)NC(=O)[C@H](CCN)NC(=O)[C@H](CCN)NC(=O)[C@H](Cc2ccccc2)NC(=O)[C@@H](CC(C)C)NC(=O)[C@H](CCN)NC1=O | 32 µg/mL (≈ 30.6 µM) | 32 µg/mL (≈ 30.6 µM) | 2 µg/mL (≈ 1.92 µM) | 8 µg/mL (≈ 7.66 µM) | 8 µg/mL (≈ 7.66 µM) | 16 µg/mL (≈ 15.3 µM) | 16 µg/mL (≈ 15.3 µM) | 8 µg/mL (≈ 7.66 µM) | 16 µg/mL (≈ 15.3 µM) | 16 µg/mL (≈ 15.3 µM) | 8 µg/mL (≈ 7.66 µM) | 4 µg/mL (≈ 3.83 µM) | 4 µg/mL (≈ 3.83 µM) | 2 µg/mL (≈ 1.92 µM) | 2 µg/mL (≈ 1.92 µM) | 4 µg/mL (≈ 3.83 µM) | 8 µg/mL (≈ 7.66 µM) | 16.1 µg/mL (≈ 15.4 µM) | 2 | 0.1 µg/mL (≈ 0.0958 µM) | MIC [21]: 0.4 µg/mL (≈ 0.383 µM); MIC [22]: 0.78 µg/mL (≈ 0.747 µM); MIC [23]: 4 µg/mL (≈ 3.83 µM); MIC [24]: 3.1 µg/mL (≈ 2.97 µM); MIC [25]: 0.6 µg/mL (≈ 0.575 µM); MIC [26]: 4.7 µg/mL (≈ 4.5 µM)
2 | C[C@@H](O)[C@H]1C(=O)N2C(C(=O)O)=C(S[C@@H]3CN[C@H](C(=O)N(C)C)C3)[C@H](C)[C@H]12 [MEROPENEM] | – | 0.125 µg/mL (≈ 0.326 µM) | 2 µg/mL (≈ 5.22 µM) | 2 µg/mL (≈ 5.22 µM) | 0.25 µg/mL (≈ 0.652 µM) | < 0.06 µg/mL | ≤ 0.06 µg/mL | 4 µg/mL (≈ 10.4 µM) | 64 µg/mL (≈ 167 µM) | > 64 µg/mL | – | 0.5 µg/mL (≈ 1.3 µM) | – | 32 µg/mL (≈ 83.4 µM) | 1 µg/mL (≈ 2.61 µM) | – | 64 µg/mL (≈ 167 µM) | – | – | – | Activity [27]: inactive; MIC [28]: 0.06 µg/mL (≈ 0.156 µM)
3 | CCCCCCC[C@@H](O)CC(=O)N[C@H](CCN)C(=O)N[C@H]1CCNC(=O)[C@H](CC(C)C)NC(=O)[C@H](CCN)NC(=O)[C@H](CCN)NC(=O)[C@H](CC(C)C)NC(=O)[C@@H](Cc2ccccc2)NC(=O)[C@H](CCN)NC1=O ({Decanoyl(3R-OH)}-[dDab][Dab][Dab][dF]L[Dab][Dab]L; lactam 2-C) | 16 µg/mL (≈ 15.3 µM) | 16 µg/mL (≈ 15.3 µM) | 2 µg/mL (≈ 1.92 µM) | 4 µg/mL (≈ 3.83 µM) | 8 µg/mL (≈ 7.66 µM) | 8 µg/mL (≈ 7.66 µM) | 16 µg/mL (≈ 15.3 µM) | 2 µg/mL (≈ 1.92 µM) | 8 µg/mL (≈ 7.66 µM) | 8 µg/mL (≈ 7.66 µM) | 8 µg/mL (≈ 7.66 µM) | 2 µg/mL (≈ 1.92 µM) | 4 µg/mL (≈ 3.83 µM) | 2 µg/mL (≈ 1.92 µM) | 2 µg/mL (≈ 1.92 µM) | 4 µg/mL (≈ 3.83 µM) | 8 µg/mL (≈ 7.66 µM) | 14.2 µg/mL (≈ 13.6 µM) | 1.8 | 0.1 µg/mL (≈ 0.0958 µM) | fraction unbound at 6 h, 2 µM [29]: 0.0805; MIC [21]: 0.4 µg/mL (≈ 0.383 µM); MIC [22]: 0.78 µg/mL (≈ 0.747 µM); MIC [23]: 4 µg/mL (≈ 3.83 µM); MIC [24]: 3.1 µg/mL (≈ 2.97 µM); MIC [25]: 0.6 µg/mL (≈ 0.575 µM); MIC [26]: 4.7 µg/mL (≈ 4.5 µM)
4 | CCCCCCCCCC(=O)N[C@H](CCN)C(=O)N[C@H]1CCNC(=O)[C@H]([C@@H](C)O)NC(=O)[C@H](CCN)NC(=O)[C@H](CCN)NC(=O)[C@@H](CC(C)C)NC(=O)[C@@H](CC(C)C)NC(=O)[C@H](CCN)NC1=O | > 64 µg/mL | > 64 µg/mL | 2 µg/mL (≈ 2.04 µM) | 32 µg/mL (≈ 32.6 µM) | 64 µg/mL (≈ 65.2 µM) | 64 µg/mL (≈ 65.2 µM) | 64 µg/mL (≈ 65.2 µM) | 64 µg/mL (≈ 65.2 µM) | 64 µg/mL (≈ 65.2 µM) | > 64 µg/mL | > 64 µg/mL | 64 µg/mL (≈ 65.2 µM) | 64 µg/mL (≈ 65.2 µM) | 64 µg/mL (≈ 65.2 µM) | 64 µg/mL (≈ 65.2 µM) | > 64 µg/mL | > 64 µg/mL | 87.5 µg/mL (≈ 89.1 µM) | 1.4 | – | –
